The values that follow come from patent US5770434A, “Soluble peptides having constrained, secondary conformation in solution and method of making same” (IXSYS Incorporated, priority 1995, dated 1998).

Data set [1] has as its system ligand-binding protein (in this example, an antibody). Description: Panning of phage-displayed peptide library against a ligand-binding protein (antibody), protein A-coated dishes. Conditions: phage-expressed peptide, compared with the general phage population.
Data set [2] in a line: Solubility of the secreted expressed peptide. An excerpt: The oligonucleotide encoding this peptide is cloned into a vector that allowed secretion of the expressed peptide. The peptide […]

For the sequence “CDDQYYTDHEQGKCEVALYYTG [SEQ. ID. NO.: 63, peptide selected from phage library]”, in data set [1], the ligand binding affinity entry is “high affinity”.
Regarding “TQSKCSTDHWLGYIEYFIMCTY [SEQ. ID. NO.: 62, twenty-two amino acid peptide selected from phage library]”, the “soluble at a concentration of” value in data set [2] is not below 4 mg/mL. Also, the ligand binding affinity result in data set [1] is given as “highest affinity”.
